BindingDB's records for doi:10.1002/1098-2396(20010101)39:1 (Nih, 2001)
Several values for one entry are separate records, joined by “and”; a condition that tells them apart may be missing. Identical values can stand only once.

Key:
[1] = target: Sodium-dependent serotonin transporter (Rattus norvegicus, UniProt P31652)
[2] = target: Sodium-dependent dopamine transporter (Rattus norvegicus, UniProt P23977)
[3] = target: Norepinephrine transporter (Rattus norvegicus, UniProt Q9JIA2)

Chain of Sodium-dependent dopamine transporter (P23977 whole entry): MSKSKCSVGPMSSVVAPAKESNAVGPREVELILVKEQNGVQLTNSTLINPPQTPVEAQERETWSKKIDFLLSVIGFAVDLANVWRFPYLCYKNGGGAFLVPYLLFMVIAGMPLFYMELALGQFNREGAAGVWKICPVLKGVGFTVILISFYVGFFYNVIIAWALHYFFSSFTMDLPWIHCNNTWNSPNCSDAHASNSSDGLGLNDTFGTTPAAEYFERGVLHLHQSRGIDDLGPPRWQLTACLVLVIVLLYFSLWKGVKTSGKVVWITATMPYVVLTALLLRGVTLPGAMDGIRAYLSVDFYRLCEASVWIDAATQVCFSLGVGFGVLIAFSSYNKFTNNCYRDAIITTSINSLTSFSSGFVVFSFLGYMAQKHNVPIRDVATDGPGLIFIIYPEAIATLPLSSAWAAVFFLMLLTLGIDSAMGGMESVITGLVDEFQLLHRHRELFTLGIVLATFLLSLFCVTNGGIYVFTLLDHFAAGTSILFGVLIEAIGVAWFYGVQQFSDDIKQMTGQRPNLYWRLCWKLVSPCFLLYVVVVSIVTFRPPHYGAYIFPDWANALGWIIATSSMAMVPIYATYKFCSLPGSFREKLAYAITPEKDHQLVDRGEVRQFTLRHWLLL
Chain of Sodium-dependent serotonin transporter (P31652 whole entry): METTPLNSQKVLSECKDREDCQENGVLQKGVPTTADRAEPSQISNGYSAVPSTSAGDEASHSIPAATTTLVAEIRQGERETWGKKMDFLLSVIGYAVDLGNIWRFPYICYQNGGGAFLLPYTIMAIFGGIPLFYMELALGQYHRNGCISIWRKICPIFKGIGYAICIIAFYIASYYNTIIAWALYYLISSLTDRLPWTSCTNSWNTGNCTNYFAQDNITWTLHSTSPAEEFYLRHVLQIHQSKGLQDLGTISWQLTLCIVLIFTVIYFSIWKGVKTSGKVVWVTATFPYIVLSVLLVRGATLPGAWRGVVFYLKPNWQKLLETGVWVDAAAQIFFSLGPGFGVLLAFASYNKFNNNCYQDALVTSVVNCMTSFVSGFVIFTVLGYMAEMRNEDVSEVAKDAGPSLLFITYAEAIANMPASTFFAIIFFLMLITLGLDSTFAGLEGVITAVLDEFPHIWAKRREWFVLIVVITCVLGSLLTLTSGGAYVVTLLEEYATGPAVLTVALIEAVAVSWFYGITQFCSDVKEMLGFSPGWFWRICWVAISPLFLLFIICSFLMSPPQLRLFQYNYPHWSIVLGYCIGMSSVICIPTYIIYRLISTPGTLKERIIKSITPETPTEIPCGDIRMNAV

In the case of `COC(=O)[C@H]1[C@@H](c2ccc(I)cc2)C[C@@H]2CC[C@H]1N2C` [RTI 55, (exo,exo)-isomer, Iodine (125) labeled], the Ki [1] is reported as 1 nM, the Ki [2] is reported as 0.83 nM and the Ki [3] is reported as 5.89 nM.

With `C[C@H](N)Cc1ccccc1` [beta-aminopropylbenzene] the Ki [3] was 38.9 nM.

For `c1ccc(CCCN2CCN(CCOC(c3ccccc3)c3ccccc3)CC2)cc1` [GBR-12935], the Ki [3] was 277 nM.

In the case of `CCNC(C)Cc1cccc(C(F)(F)F)c1` (stereo not drawn) [NSC_3337], the Ki [2] is reported as greater than 10000 nM.

Work on `CN[C@@H](C)Cc1ccc2c(c1)OCO2` [DL-(3,4-Methylenedioxy)methamphetamine] yielded a Ki [1] of 238 nM, a Ki [2] of 1570 nM and a Ki [3] of 462 nM.

Compound `NC1=NCC(c2ccccc2)O1` (stereo not drawn) [CAS_2207-50-3] has a Ki [1] of 1240 nM, a Ki [2] of 216 nM and a Ki [3] of 54.5 nM.

`NCCc1c[nH]c2ccc(O)cc12` [[3H]-5-HT] was tested, and the Ki [2] was 2700 nM and the Ki [3] was 3010 nM.

Work on `CN[C@@H](C)[C@H](O)c1ccccc1` [Ephedrine,(-)] yielded a Ki [1] greater than 10000 nM, a Ki [2] of 4400 nM and a Ki [3] of 225 nM.

For `NCCc1ccc(O)cc1`, the Ki [1] was 1560 nM, the Ki [2] was 106 nM and the Ki [3] was 72.5 nM.

For `NCC(O)c1ccc(O)c(O)c1` (stereo not drawn) [Noradrenaline,(+)], the Ki [1] was greater than 10000 nM, the Ki [2] was 357 nM and the Ki [3] was 63.9 nM.

Compound `CC(C)(N)Cc1ccccc1` [2-methyl-1-phenylpropan-2-amine] has a Ki [1] greater than 10000 nM, a Ki [2] of 1580 nM and a Ki [3] of 244 nM.

With `CC(C)(N)Cc1ccc(Cl)cc1` [CAS_461-78-9] the Ki [1] was 338 nM, the Ki [2] was 3940 nM and the Ki [3] was 451 nM.

`O[C@]1(c2ccc(Cl)cc2)c2ccccc2C2=NCCN21` [Mazanor] gave a Ki [1] of 272 nM, a Ki [2] of 25.9 nM and a Ki [3] of 2.88 nM.

With `COC(=O)C1C2CC[C@H](C[C@@H]1c1ccc(N)cc1)N2C` (stereo partly drawn) [(3S,8R)-3-(4-Amino-phenyl)-8-methyl-8-aza-bicyclo[3.2.1]octane-2-carboxylic acid methyl ester] the Ki [2] was 2.15 nM.

`CN1[C@H]2CC[C@@H]1[C@@H](C(=O)N1CCCC1)[C@@H](c1ccc(I)cc1)C2` [RTI-229] gave a Ki [1] of 362 nM and a Ki [3] of 19.5 nM.

`CN[C@@H](C)Cc1ccccc1` [METHAMPHETAMINE (+)] was tested, and the Ki [3] was 48 nM and 234 nM.

For `NCCc1ccc(O)c(O)c1`, the Ki [1] was 6490 nM and the Ki [3] was 40.3 nM.
